Assay results as given in PubChem BioAssay AID179 (DTP/NCI, 2004).
Activity calls are given as the source filed them.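 The calls were made as follows: active = compounds giving half or more protection of infected cells from virus-caused growth loss, again on retest; inactive = the rest.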

Tested on: CEM cells HIV-1 protection, formazan growth assay
Experiment: NCI AIDS Antiviral Assay
Conditions: for IC50: measured here: growth of uninfected CEM cells
Procedure, shortened: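 Steps: treat uninfected and HIV-1-infected human CEM cells at five drug levels; quantify growth by soluble formazan; retest any compound reaching 50% protection; classify actives from the retest.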

Compound | EC50 [µM] | IC50 [µM] | outcome
O=C(CCc1n[nH]c(=S)o1)Nc1ccc(Cl)cc1Cl | > 31.6 | > 31.6 | –
N[C@H]1c2ccsc2C(=O)[C@H]1O | > 1 | > 1 | –
CNc1ncc2nc(C)c(=O)n(C)c2n1 | > 200 | > 200 | –
CC(=O)c1c2c(cc3c1CC1(Cc4cc5c(cc4C1)CCCC5)C3)CCCC2 | > 200 | 34.7 | –
Cn1c(N)cc[n+](C2CCC(CO)O2)c1=O (stereo unspecified) (tested in a mixture with another compound) | 9.12 | 708 | –
c1ccc(C2OCC(OC3CCCCO3)CO2)cc1 (stereo unspecified) | > 200 | > 200 | –
O=[N+]([O-])c1ccc(C2OC3CC4C5CCCC5C3C4O2)cc1 (stereo unspecified) | > 200 | 19.5 | –
CCCCN(CCCC)CCCNc1c2c(nc3cc(Cl)ccc13)CCCC2 | > 200 | 38.9 | –
O=C(O)c1cccc(Nc2ccccc2C(=O)O)c1 | > 513 | > 513 | –
OC(CCN1CC2CCC(CC2)C1)(Cc1ccccc1)c1cccs1 (stereo unspecified) | > 200 | 47.9 | –
Cc1ccc2nc3cc(C)c(=O)cc-3sc2c1 | > 56.2 | 37.2 | –
COc1ccc2c(c1)OC(OC)(c1ccccc1)C(O)(OC)C2=O (stereo unspecified) | > 200 | 15.1 | –
CC(=N)C(C#N)C(=S)S (stereo unspecified) | > 537 | 27.5 | –
O=S1c2ccccc2N=C(c2ccc(Cl)cc2)CC1c1cccs1 (stereo unspecified) | > 7.41 | > 7.41 | –
COC(=O)NC(=O)c1cn(C2CCCCC2)c(=O)[nH]c1=O | > 123 | > 123 | –
COc1ccc(C(O)/C(=N/N)c2nc3ccc(Cl)cc3[nH]c2=O)cc1 (stereo unspecified) | > 263 | 251 | –
O=C1CC2(CCC(O)(c3ccc4ccccc4c3)C(C(=O)c3ccc4ccccc4c3)C2)C(=O)c2ccccc2N1 (stereo unspecified) | > 200 | 83.2 | –
CC(C)CCC[C@@H](C)[C@H]1CC[C@H]2[C@@H]3CC=C4CC(OCCCCN(O)CCCSC5OC(CO)C(O)C(O)C5O)CC[C@]4(C)[C@H]3CC[C@]12C (stereo partly specified) | > 200 | 35.5 | –
O=C1c2c(nc3ccccc3c2-c2ccccc2)CN1Nc1ccccn1 | > 141 | > 141 | –
COC(=O)[C@@H]1CCCN1C(=O)C1Cc2c([nH]c3ccccc23)[C@@H](C=C(C)C)N1C(=O)OC(C)(C)C(Cl)(Cl)Cl (stereo partly specified) | – | – | inactive
O=C(O)CSc1cc2c3ccccc3sc2c2ccccc12 | > 6.17 | > 6.17 | –
COc1cccc2c(NNc3ccc(Cl)cc3)c3ccc([N+](=O)[O-])cc3nc12 | > 200 | 12.3 | –
CNP(=S)(Oc1cc(Cl)c(Cl)cc1Cl)N1CCN(c2ccc(Cl)cc2)CC1 (stereo unspecified) | > 36.3 | 21.4 | –

Compound | EC50 [µM] | IC50 [µM] | outcome
C[N+](C)(C)CC(=O)N/N=C(\C(=O)NC1=C(Cl)C(=O)c2ccccc2C1=O)C(C#N)c1csc(-c2ccc([N+](=O)[O-])cc2)n1 (stereo unspecified) | – | – | inactive
O=C1[C@@H]2C(c3ccc(Br)cc3)=NO[C@@H]2C(=O)N1c1ccc(Cc2ccc(N3C(=O)[C@H]4C(c5ccc(Br)cc5)=NO[C@H]4C3=O)cc2)cc1 | > 9.55 | > 9.55 | –
COc1ccc(NC(C)=O)cc1N1C(=O)/C(=C\c2cc(OC)c(OC)c(OC)c2)SC1c1ccccc1 (stereo unspecified) | – | – | inactive
Cc1cc(C)cc(NC(N)=S)c1 | > 1000 | > 1000 | –
OC1(CCc2ccccc2)COC(C(F)(F)F)(C(F)(F)F)C1 (stereo unspecified) | > 200 | > 200 | –
N=c1ccn2c(n1)OC1C(O)C(CCl)OC12 (stereo unspecified) | > 200 | 0.145 | –
O=C(O)CC1OCC=C2CN3CCC45c6ccccc6NC4C1C2CC35 (stereo unspecified) | > 85.1 | > 85.1 | inactive
CC(C)=CCC1(O)C(=O)c2ccccc2C1(O)C(=O)O (stereo unspecified) | > 200 | > 200 | –
CC[N+](C)(C)CC(O)(O)C(F)F | > 200 | > 200 | –
O=C(CCC(=O)OCC1OC(O)(CC2OC(CO)C(O)C(O)C2O)C(O)C1O)OCc1ccccc1 (stereo unspecified) | > 200 | > 200 | –
C[C@H]1[C@@H](c2ccccc2)C12C(=O)NC(=O)NC2=O | > 200 | 105 | –
O=C(O)c1cscc1C(=O)O | > 200 | > 200 | –
O=C(CC1(O)C(=O)N(CN2CCCCC2)c2ccccc21)c1ccccc1 (stereo unspecified) | > 200 | 97.7 | –
CN1CCC2(CC1)OC(c1ccccc1)C(c1ccccc1)O2 (stereo unspecified) | > 200 | 115 | –
COc1ccc(-c2c(C#N)c(N)n(C3OCC(O)C(O)C3O)c(=S)c2C#N)cc1 (stereo unspecified) | > 200 | 117 | –
CSCC1CC(c2ccc(Cl)cc2)=NO1 (stereo unspecified) | > 107 | > 107 | –
c1csc(C(NC2=NCCO2)C2CC2)c1 (stereo unspecified) | > 200 | 166 | –
Cc1ccc(N2C(N)=C(C#N)C(C#N)(C#N)C2c2ccccc2)cc1 (stereo unspecified) | > 200 | 2.82 | –
CCOC(=O)c1ccc(N2C(=O)/C(=C\OC)c3ccccc3C2=O)cc1 | – | – | inactive
O=C1CCSC2=NCCN12 | – | – | inactive
N#Cc1c(C#N)c(-c2ccco2)n(/N=C/c2ccco2)c1N | > 200 | > 200 | –
CCN(CC)Cc1cc(Nc2ccnc3ccc4nn(C)nc4c23)ccc1O | > 603 | 15.8 | –
